Test results: patent US11306064B2, “Benzothia(di)azepine compounds and their use as bile acid modulators” (Albireo AB, priority 2018, dated 2022)

Columns and labels:
Format in all cases: cell-based
[1] = target: T1, Human LBAT (Homo sapiens, UniProt Q14973); assay: LBAT (h/m) assay: 3H-taurocholic acid uptake in human LBAT-overexpressing cells; details: 0.3 μM 3H-taurocholic acid and 7.5 μM cold taurocholic acid, 20 minutes, read-out: hLBAT IC50
T1 construct: expressed in transfected cells; kept under Geneticin selection
T1 sequence (Q14973 1-349): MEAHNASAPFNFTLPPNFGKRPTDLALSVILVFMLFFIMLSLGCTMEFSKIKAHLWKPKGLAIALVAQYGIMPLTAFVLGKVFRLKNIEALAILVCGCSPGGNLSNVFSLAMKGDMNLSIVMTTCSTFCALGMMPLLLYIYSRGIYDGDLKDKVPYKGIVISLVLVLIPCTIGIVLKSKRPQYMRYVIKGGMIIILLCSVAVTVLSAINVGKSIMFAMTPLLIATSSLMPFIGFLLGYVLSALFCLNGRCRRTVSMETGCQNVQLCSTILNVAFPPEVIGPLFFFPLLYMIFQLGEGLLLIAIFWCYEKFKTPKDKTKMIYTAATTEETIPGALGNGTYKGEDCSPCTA
Description: LBAT (h/m) Assay Protocol
20,000 cells (Human or Mouse LBAT-overexpressing cells) were seeded in 96-wells plate (Corning CLS3809) in 100 μL MEM-alpha medium (Gibco 12571-063) supplemented with 10% FBS (Gibco 10438026) containing Geneticin (Gibco 10131-027) (1 mg/mL) and incubated at 37° C. in 5% CO2 for 24 hours. After incubation, media was decanted from the wells and cells were washed two times with 300 μL of basal MEM-alpha medium (FBS-free). After decanting basal MEM-alpha medium each time, plates were tapped against paper towel to ensure maximum removal of residual media. For human LBAT, incubation mix was prepared by adding test inhibitor dilutions (3-fold serial dilution in DMSO (Sigma D2650), 10 points) in MEM-alpha (without FBS) containing 0.3 μM 3H-taurocholic acid (ARC ART-1368) and 7.5 μM cold taurocholic acid (Sigma T4009) (maintaining 0.2% final DMSO concentration). For mouse LBAT, incubation mix was prepared by adding test inhibitor dilutions (3-fold serial dilution in DMSO, 10 points) in MEM-alpha (without FBS) containing 0.3 μM 3H-taurocholic acid and 25 μM cold taurocholic acid maintaining 0.2% final DMSO concentration).
50 μL of incubation mix containing test inhibitors was then added to the wells (in duplicate) and the plates were incubated for 20 minutes in a CO2 incubator at 37° C. After incubation, the reaction was stopped by keeping the plates on ice water mix for 2-3 minutes and then the incubation mix was aspirated completely from the wells. The wells were washed two times with 250 μL of chilled unlabelled 1 mM taurocholic acid dissolved in HEPES (Gibco 15630080)-buffered (10 mM) HBSS (Gibco 14175079) (pH 7.4). The plates were tapped against a paper towel after every wash to ensure maximum removal of blocking buffer.
(§1) 100 μL of MicroScint-20 (PerkinElmer 6013621) was added to the wells and kept overnight at room temperature before reading the plates in TopCount NXT™ Microplate Scintillation and Luminescence Counter from PerkinElmer under 3H Test protocol (set at 120 seconds reading time per well, with normal plate orientation).
(§2) Preparation of Test Compound Dilutions
(§3) All test compounds were provided in powder form at room temperature. 10 mM DMSO stocks of the test compounds were prepared, aliquoted and stored at −20° C. From the 10 mM DMSO stock of the compounds, a 3-fold serial dilution in DMSO was prepared to get a total of 10 dilutions of the test compounds. 0.5 μL of this dilution in DMSO was added to 250 μL of FBS-free basal media containing 3H-taurocholic acid and cold taurocholic acid to prepare the incubation mixture.

[2] = target: T2, Human ASBT (Homo sapiens, UniProt Q12908); assay: ASBT (h/m) assay: 3H-taurocholic acid uptake in human ASBT-overexpressing cells; details: 0.25 μM 3H-taurocholic acid and 5 μM cold taurocholic acid, 20 minutes, read-out: hASBT IC50
T2 construct: expressed in transfected cells; kept under Puromycin selection
T2 sequence (Q12908 1-348): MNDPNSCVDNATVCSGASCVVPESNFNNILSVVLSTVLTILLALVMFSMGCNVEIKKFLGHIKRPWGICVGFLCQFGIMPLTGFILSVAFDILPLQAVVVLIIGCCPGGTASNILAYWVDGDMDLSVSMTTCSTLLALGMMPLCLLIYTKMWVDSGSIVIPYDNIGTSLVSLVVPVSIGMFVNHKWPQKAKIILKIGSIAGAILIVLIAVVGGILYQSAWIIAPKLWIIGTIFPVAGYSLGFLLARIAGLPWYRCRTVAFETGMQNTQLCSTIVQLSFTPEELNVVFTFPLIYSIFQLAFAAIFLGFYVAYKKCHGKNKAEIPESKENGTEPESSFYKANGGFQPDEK
Description: ASBT (h/m) Assay Protocol
10,000 cells (Human or Mouse ASBT-overexpressing cells) were seeded in 96-wells plate (Corning CLS3809) in 200 μL MEM-alpha medium (Gibco 12571-063) supplemented with 10% FBS (Gibco 10438026) containing Puromycin (Gibco A1113803) (10 μg/mL) and incubated at 37° C. in 5% CO2 for 48 hours. After incubation, media was decanted from the wells and cells were washed two times with 300 μL of basal MEM-alpha medium (FBS-free). After decanting basal MEM-alpha medium each time, plates were tapped against paper towel to ensure maximum removal of residual media. Test inhibitor dilutions (highest test concentration being 10 μM, 3-fold serial dilution, 10 points) prepared in DMSO (Sigma D2650) were added in incubation mix (maintaining 0.2% final DMSO concentration) containing 0.25 μM 3H-taurocholic acid (ARC ART-1368) and 5 μM of cold taurocholic acid (Sigma T4009). 50 μL of incubation mix containing test inhibitors was then added to the wells (in duplicate) and the plates were incubated for 20 minutes in a CO2 incubator at 37° C. After incubation, the reaction was stopped by keeping the plates on ice water mix for 2-3 minutes and then the incubation mix was aspirated completely from the wells. The wells were washed two times with 250 μL of chilled unlabelled 1 mM taurocholic acid dissolved in HEPES (Gibco 15630080)-buffered (10 mM) HBSS (Gibco 14175079) (pH 7.4). The plates were tapped against a paper towel after every wash to ensure maximum removal of blocking buffer.
100 μL of MicroScint-20 (PerkinElmer 6013621) was added to the wells and kept overnight at room temperature before reading the plates in TopCount NXT™ Microplate Scintillation and Luminescence Counter from PerkinElmer under 3H Test protocol (set at 120 seconds reading time per well).
as §2, §3

[3] = tested on: HepaRG cells; assay: HepaRG-based assay: 3H-taurocholic acid uptake in differentiated HepaRG cells; details: Homo sapiens, HepaRG, 0.3 μM 3H-taurocholic acid and 7.5 μM cold taurocholic acid, 30 minutes
Description: HepaRG-Based Assay Protocol
A cryopreserved vial of differentiated HepaRG cells (Biopredic International HPR116080) was thawed in HepaRG Thawing/Plating/General Purpose Medium (Biopredic International ADD670C) supplemented with 200 mM Glutamax (Gibco 35050061) following the protocol provided by Biopredic International. 70,000 cells per well were seeded in 96-wells plate (Corning CLS3809) in 100 μL of HepaRG Thawing/Plating/General Purpose Medium supplemented with 200 mM Glutamax and incubated at 37° C. in 5% CO2 for 24 hours. Post incubation, the seeding media was replaced by HepaRG Maintenance/Metabolism Medium (Biopredic International ADD620C) and incubated for 6 days, with fresh HepaRG Maintenance/Metabolism Medium replenishment every 48 hours. After 7 days incubation post seeding, incubation media was decanted from the wells and cells were washed two times with 250 μL of William's E Basal Media (Gibco 12551032). After decanting William's E Basal Media each time, plates were tapped against paper towel to ensure maximum removal of residual media.
Incubation mix was prepared by adding test inhibitor dilutions (3-fold serial dilution in DMSO (Sigma D2650)) in William's E media (basal) containing 0.3 μM 3H-taurocholic acid (ARC ART-1368) and 7.5 μM cold taurocholic acid (Sigma T4009) (maintaining 0.2% final DMSO concentration). 50 μl of incubation mix containing test inhibitors was then added to the wells (in duplicate) and the plates were incubated for 30 minutes in 5% CO2 incubator at 37° C. After incubation, the reaction was stopped by keeping the plates on ice water mix for 2-3 minutes and then the incubation mix was aspirated completely from the wells. The wells were washed two times with 250 μL of chilled unlabelled 1 mM taurocholic acid dissolved in HEPES (Gibco 15630080)-buffered (10 mM) HBSS (Gibco 14175079) (pH 7.4). The plates were tapped against a paper towel after every wash to ensure maximum removal of blocking buffer.
as §1, §2, §3

SMILES	IC50 [1] [nM]	IC50 [2] [nM]	IC50 [3] [nM]
CCCCC1(CC)CN(c2ccccc2)c2cc(SC)c(O/C=C/C(=O)O)cc2S(=O)(=O)C1 (racemic) [Example 16, (E)-3-((3-butyl-3-ethyl-7-(methylthio)-1,1-dioxido-5-phenyl-2,3,4,5-tetrahydro-1,5-benzothiazepin-8-yl)oxy)acrylic Acid]	82	33	1030
CCCCC1(CCCC)CN(c2ccc(NC(=O)CC(C)(C)C)cc2)c2cc(SC)c(O/C=C/C(=O)O)cc2S(=O)(=O)C1 [Example 30, (E)-3-((3,3-dibutyl-5-(4-(3,3-dimethylbutanamido)phenyl)-7-(methylthio)-1,1-dioxido-2,3,4,5-tetrahydro-1,5-benzothiazepin-8-yl)oxy)acrylic Acid]	107		336
CCCCC1(CCCC)CN(c2ccc(NC(=O)C(C)C)cc2)c2cc(SC)c(O/C=C(\F)C(=O)O)cc2S(=O)(=O)C1 [Example 31, (Z)-3-((3,3-dibutyl-5-(4-isobutyramidophenyl)-7-(methylthio)-1,1-dioxido-2,3,4,5-tetrahydro-1,5-benzothiazepin-8-yl)oxy)-2-fluoroacrylic Acid]	17		310
CCCCC1(CCCC)CN(c2ccc(NC(=O)C(C)C)cc2)c2cc(SC)c(O/C=C/C(=O)O)cc2S(=O)(=O)C1 [Example 33, (E)-3-((3,3-dibutyl-5-(4-isobutyramidophenyl)-7-(methylthio)-1,1-dioxido-2,3,4,5-tetrahydro-1,5-benzothiazepin-8-yl)oxy)acrylic Acid]	214		691
CCCCC1(CC)CN(c2ccc(NC(=O)C(C)(C)C)cc2)c2cc(SC)c(O/C=C/C(=O)O)cc2S(=O)(=O)C1 (stereo not shown) [Example 34, (E)-3-((3-butyl-3-ethyl-7-(methylthio)-1,1-dioxido-5-(4-pivalamidophenyl)-2,3,4,5-tetrahydro-1,5-benzothiazepin-8-yl)oxy)acrylic Acid]	76		469

Next, values leading:

IC50 [1] [nM]	IC50 [2] [nM]	IC50 [3] [nM]	SMILES
8.3	26	336	CCCCC1(CC)CN(c2ccccc2)c2cc(SC)c(O/C=C(\F)C(=O)O)cc2S(=O)(=O)C1 (racemic) [Example 41, (Z)-3-((3-butyl-3-ethyl-7-(methylthio)-1,1-dioxido-5-phenyl-2,3,4,5-tetrahydro-1,5-benzothiazepin-8-yl)oxy)-2-fluoroacrylic Acid]
24	97	590	CCCCC1(CC)CN(c2ccccc2)c2cc(Cl)c(O/C=C(\F)C(=O)O)cc2S(=O)(=O)C1 (racemic) [Example 46, (Z)-3-((3-butyl-7-chloro-3-ethyl-1,1-dioxido-5-phenyl-2,3,4,5-tetrahydro-1,5-benzothiazepin-8-yl)oxy)-2-fluoroacrylic Acid]
66		590	CCCCC1(CCCC)CN(c2ccc(NC(=O)C3CCCC3)cc2)c2cc(SC)c(O/C=C(\F)C(=O)O)cc2S(=O)(=O)C1 [Example 35, (Z)-3-((3,3-dibutyl-5-(4-(cyclopentanecarboxamido)phenyl)-7-(methylthio)-1,1-dioxido-2,3,4,5-tetrahydro-1,5-benzothiazepin-8-yl)oxy)-2-fluoroacrylic Acid]
39		877	CCCCC1(CCCC)CN(c2ccc(NC(=O)C3CC3)cc2)c2cc(SC)c(O/C=C(\F)C(=O)O)cc2S(=O)(=O)C1 [Example 36, (Z)-3-((3,3-dibutyl-5-(4-(cyclopropanecarboxamido)phenyl)-7-(methylthio)-1,1-dioxido-2,3,4,5-tetrahydro-1,5-benzothiazepin-8-yl)oxy)-2-fluoroacrylic Acid]
122		454	CCCCC1(CC)CN(c2ccc(NC(=O)C3CCCC3)cc2)c2cc(SC)c(O/C=C/C(=O)O)cc2S(=O)(=O)C1 (stereo not shown) [Example 38, (E)-3-((3-butyl-5-(4-(cyclopentanecarboxamido)phenyl)-3-ethyl-7-(methylthio)-1,1-dioxido-2,3,4,5-tetrahydro-1,5-benzothiazepin-8-yl)oxy)acrylic Acid]
84		191	CCC1(CC)CN(c2ccc(NC(=O)C(C)(C)C)cc2)c2cc(SC)c(O/C=C(\F)C(=O)O)cc2S(=O)(=O)C1 [Example 52, (Z)-3-((3,3-diethyl-7-(methylthio)-1,1-dioxido-5-(4-pivalamidophenyl)-2,3,4,5-tetrahydro-1,5-benzothiazepin-8-yl)oxy)-2-fluoroacrylic Acid]
